The values that follow come from US9233964B2, “Sulfamide piperazine derivatives as protein tyrosine kinase inhibitors and pharmaceutical use therof” (LEO PHARMA A/S, priority 2011, dated 2016).

What is called EC50 is the concentration needed to bring the measured effect to its halfway point.

SMILES strings stand for the structures.

Common to all, as to format: biochemical
In test [1] the target is T1, JAK2 (Homo sapiens, UniProt O60674).
T1 construct: All four purified enzymes contain only the catalytic domain; His (N); purchased Carna Biosciences, Inc; host or cells: baculovirus expression system
T1 sequence (O60674 849-1124 limits assumed): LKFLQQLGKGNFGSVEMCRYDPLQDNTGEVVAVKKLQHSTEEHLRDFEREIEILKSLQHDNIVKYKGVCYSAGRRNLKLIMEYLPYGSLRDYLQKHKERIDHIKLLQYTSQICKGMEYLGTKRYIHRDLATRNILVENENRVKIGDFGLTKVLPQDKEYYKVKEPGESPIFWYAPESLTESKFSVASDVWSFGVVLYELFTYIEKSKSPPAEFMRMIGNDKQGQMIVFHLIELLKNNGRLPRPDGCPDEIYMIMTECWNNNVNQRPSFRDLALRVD
Nature of the test: JAK kinase assay (HTRF, phosphorylation of synthetic peptide), JAK2. The note with it: catalytic domain, ATP at Km (4 μM); read-out: JAK2 kinase inhibitory activity (EC50). The gist of the method: (§1)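 Catalytic-domain human JAK1 (GST-tagged, aa 850-1154) or His-tagged JAK2, baculovirus-expressed, phosphorylated 1 µM biotinylated TK peptide at Km ATP (JAK1 7 µM, 10 mM MgCl2, 50 nM SEB; JAK2 4 µM, 5 mM MgCl2) in pH 7.0 Hepes, 20-30 min RT. EDTA stop; overnight streptavidin-XL665/cryptate HTRF read.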
A general note: Time-resolved FRET reads energy transfer from a long-lived donor to a nearby acceptor.

Test [2] addresses T2, JAK3 (Homo sapiens, UniProt P52333).
T2 construct: All four purified enzymes contain only the catalytic domain; His (N); purchased Carna Biosciences, Inc; host or cells: baculovirus expression system
The test is described as follows: JAK kinase assay (HTRF, phosphorylation of synthetic peptide), JAK3. The settings on record: catalytic domain, ATP at Km (2 μM); read-out: JAK3 kinase inhibitory activity (EC50).

The target of test [3] is T3, TYK2 (Homo sapiens, UniProt P29597).
T3 construct: JAK1 (aa 850-1154) and TYK2 (aa 871-1187) are expressed with an N-terminally fused GST-tag; GST (N); purchased Carna Biosciences, Inc; host or cells: baculovirus expression system
T3 sequence (P29597 871-1187): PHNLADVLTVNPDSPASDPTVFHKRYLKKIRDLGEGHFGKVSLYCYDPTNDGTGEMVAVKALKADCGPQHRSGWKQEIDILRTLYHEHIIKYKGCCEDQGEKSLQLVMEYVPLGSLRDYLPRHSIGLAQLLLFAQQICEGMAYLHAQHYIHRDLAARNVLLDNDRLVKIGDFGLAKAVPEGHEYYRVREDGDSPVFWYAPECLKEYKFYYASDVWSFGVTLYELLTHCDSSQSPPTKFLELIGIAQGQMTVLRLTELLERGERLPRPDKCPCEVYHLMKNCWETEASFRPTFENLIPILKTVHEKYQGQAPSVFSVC
Nature of the test: JAK kinase assay (HTRF, phosphorylation of synthetic peptide), TYK2. The settings on record: catalytic domain, ATP at Km (13 μM); read-out: TYK2 kinase inhibitory activity (EC50). The gist of the method: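 1 µM biotinylated TK peptide at Km ATP in pH 7.0 Hepes, 20-30 min RT. EDTA stop; overnight streptavidin-XL665/cryptate HTRF read.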

The target in test [4] is T4, JAK1 (Homo sapiens, UniProt P23458).
T4 construct: JAK1 (aa 850-1154) and TYK2 (aa 871-1187) are expressed with an N-terminally fused GST-tag; GST (N); purchased Carna Biosciences, Inc; host or cells: baculovirus expression system
T4 sequence (P23458 850-1154): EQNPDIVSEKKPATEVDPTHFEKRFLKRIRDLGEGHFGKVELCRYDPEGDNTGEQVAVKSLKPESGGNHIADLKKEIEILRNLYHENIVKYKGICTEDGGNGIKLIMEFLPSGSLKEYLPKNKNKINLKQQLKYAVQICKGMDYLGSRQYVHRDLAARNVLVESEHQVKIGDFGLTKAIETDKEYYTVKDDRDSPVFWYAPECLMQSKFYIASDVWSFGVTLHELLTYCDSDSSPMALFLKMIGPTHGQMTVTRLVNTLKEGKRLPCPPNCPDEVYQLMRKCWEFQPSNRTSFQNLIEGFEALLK
Nature of the test: JAK kinase assay (HTRF, phosphorylation of synthetic peptide), JAK1. The note with it: catalytic domain, ATP at Km (7 μM); read-out: JAK1 kinase inhibitory activity (EC50). The gist of the method: as §1

T2 sequence (P52333 822-1111 limits assumed): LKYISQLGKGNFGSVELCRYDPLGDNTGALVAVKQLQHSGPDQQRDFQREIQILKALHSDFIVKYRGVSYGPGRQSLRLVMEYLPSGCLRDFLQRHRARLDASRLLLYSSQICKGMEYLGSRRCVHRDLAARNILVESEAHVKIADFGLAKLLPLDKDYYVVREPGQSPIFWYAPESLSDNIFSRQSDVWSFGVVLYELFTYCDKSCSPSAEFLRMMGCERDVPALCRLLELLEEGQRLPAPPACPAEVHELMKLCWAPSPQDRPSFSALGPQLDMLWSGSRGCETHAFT

In the case of `CCCC(C)NS(=O)(=O)N1CCN(c2ncnc3[nH]ccc23)CC12CC2` (stereo not shown) [Example 143, N-(1-methylbutyl)-5-(7H-pyrrolo[2,3-d]pyrimidin-4-yl)-5,8-diazaspiro[2.5]octane-8-sulfonamide], the EC50 in test [1] is less than 0.1 µM; in test [2], 0.1 to 0.5 µM; in test [3], greater than 0.5 µM; in test [4], less than 0.1 µM.
Take `O=S(=O)(NC1CCCC1)N1CCN(c2ncnc3[nH]ccc23)CC12CC2` [Example 144, N-cyclopentyl-5-(7H-pyrrolo[2,3-d]pyrimidin-4-yl)-5,8-diazaspiro[2.5]octane-8-sulfonamide]: the EC50 in test [1] is less than 0.1 µM; in test [2] it was 0.1 to 0.5 µM; in test [3] it was 0.1 to 0.5 µM; in test [4] it was less than 0.1 µM.
Regarding `N#CCN(CC#N)S(=O)(=O)N1CCN(c2ncnc3[nH]ccc23)CC12CC2` [Example 145, N,N-bis(cyanomethyl)-5-(7H-pyrrolo[2,3-d]pyrimidin-4-yl)-5,8-diazaspiro[2.5]octane-8-sulfonamide], the EC50 is less than 0.1 µM in test [1], less than 0.1 µM in test [2], 0.1 to 0.5 µM in test [3] and less than 0.1 µM in test [4].
As to `O=S(=O)(N(Cc1ccccc1)Cc1ccccc1)N1CCN(c2ncnc3[nH]ccc23)CC12CC2` [Example 146, N,N-dibenzyl-5-(7H-pyrrolo[2,3-d]pyrimidin-4-yl)-5,8-diazaspiro[2.5]octane-8-sulfonamide], the concentration for a half-maximal effect (EC50) in test [1] is 0.1 to 0.5 µM; in test [2], greater than 0.5 µM; in test [3] it was greater than 0.5 µM; in test [4], 0.1 to 0.5 µM.
`O=S(=O)(NCc1ccccc1)N1CCN(c2ncnc3[nH]ccc23)CC12CC2` [Example 147, N-benzyl-5-(7H-pyrrolo[2,3-d]pyrimidin-4-yl)-5,8-diazaspiro[2.5]octane-8-sulfonamide]: the EC50 in test [1] was less than 0.1 µM; in test [2], 0.1 to 0.5 µM; in test [3] it was 0.1 to 0.5 µM; in test [4], less than 0.1 µM.
Take `O=S(=O)(NCC1CCC(F)(F)CC1)N1CCN(c2ncnc3[nH]ccc23)CC12CC2` [Example 148, N-[(4,4-difluorocyclohexyl)methyl]-5-(7H-pyrrolo[2,3-d]pyrimidin-4-yl)-5,8-diazaspiro[2.5]octane-8-sulfonamide]: the 50% effective concentration (EC50) is less than 0.1 µM in test [1], less than 0.1 µM in test [2], 0.1 to 0.5 µM in test [3] and less than 0.1 µM in test [4].
Consider `CCN(CC1CCC(F)(F)CC1)S(=O)(=O)N1CCN(c2ncnc3[nH]ccc23)CC12CC2` [Example 149, N-[(4,4-difluorocyclohexyl)methyl]-N-ethyl-5-(7H-pyrrolo[2,3-d]pyrimidin-4-yl)-5,8-diazaspiro[2.5]octane-8-sulfonamide], for which the EC50 is less than 0.1 µM in test [1], less than 0.1 µM in test [2], greater than 0.5 µM in test [3] and less than 0.1 µM in test [4].
On to `O=S(=O)(N(CC1CCC(F)(F)CC1)CC1CCC(F)(F)CC1)N1CCN(c2ncnc3[nH]ccc23)CC12CC2` [Example 150, N,N-bis[(4,4-difluorocyclohexyl)methyl]-5-(7H-pyrrolo[2,3-d]pyrimidin-4-yl)-5,8-diazaspiro[2.5]octane-8-sulfonamide], for which the EC50 in test [1] was less than 0.1 µM; in test [2], 0.1 to 0.5 µM; in test [3], greater than 0.5 µM; in test [4], 0.1 to 0.5 µM.
With `CN(CC1CCN(C(=O)CCO)CC1)S(=O)(=O)N1CCN(c2ncnc3[nH]ccc23)CC12CC2` [Example 151, N-[[1-(3-hydroxypropanoyl)-4-piperidyl]methyl]-N-methyl-5-(7H-pyrrolo[2,3-d]pyrimidin-4-yl)-5,8-diazaspiro[2.5]octane-8-sulfonamide], the EC50 in test [1] was less than 0.1 µM; in test [2], 0.1 to 0.5 µM; in test [3], 0.1 to 0.5 µM; in test [4] it was less than 0.1 µM.
`CN(CC1CCN(C(=O)CCC#N)CC1)S(=O)(=O)N1CCN(c2ncnc3[nH]ccc23)CC12CC2` [Example 152, N-[[1-(3-cyanopropanoyl)-4-piperidyl]methyl]-N-methyl-5-(7H-pyrrolo[2,3-d]pyrimidin-4-yl)-5,8-diazaspiro[2.5]octane-8-sulfonamide]: the EC50 was less than 0.1 µM in test [1], 0.1 to 0.5 µM in test [2], greater than 0.5 µM in test [3] and less than 0.1 µM in test [4].
Consider `CN(CC1CCCN(C(=O)CCC#N)C1)S(=O)(=O)N1CCN(c2ncnc3[nH]ccc23)CC12CC2` (stereo not shown) [Example 153, N-[[1-(3-cyanopropanoyl)-3-piperidyl]methyl]-N-methyl-5-(7H-pyrrolo[2,3-d]pyrimidin-4-yl)-5,8-diazaspiro[2.5]octane-8-sulfonamide], for which the EC50 in test [1] is less than 0.1 µM; in test [2] it was 0.1 to 0.5 µM; in test [3], greater than 0.5 µM; in test [4], less than 0.1 µM.
As for `CN(CC1CCCN(C(=O)CCO)C1)S(=O)(=O)N1CCN(c2ncnc3[nH]ccc23)CC12CC2` (stereo not shown) [Example 154, N-[[1-(3-hydroxypropanoyl)-3-piperidyl]methyl]-N-methyl-5-(7H-pyrrolo[2,3-d]pyrimidin-4-yl)-5,8-diazaspiro[2.5]octane-8-sulfonamide], the EC50 in test [1] is less than 0.1 µM; in test [2], less than 0.1 µM; in test [3], 0.1 to 0.5 µM; in test [4] it was less than 0.1 µM.
As to `CN(C[C@@H]1CC(F)(F)CN1C(=O)CCO)S(=O)(=O)N1CCN(c2ncnc3[nH]ccc23)CC12CC2` [Example 155, N-[[(2S)-4,4-difluoro-1-(3-hydroxypropanoyl)pyrrolidin-2-yl]methyl]-N-methyl-5-(7H-pyrrolo[2,3-d]pyrimidin-4-yl)-5,8-diazaspiro[2.5]octane-8-sulfonamide], the EC50 in test [1], in test [2], in test [3] and in test [4] was less than 0.1 µM in each case.
For `CN(C[C@@H]1CC(F)(F)CN1C(=O)CCC#N)S(=O)(=O)N1CCN(c2ncnc3[nH]ccc23)CC12CC2` [Example 156, N-[[(2S)-1-(3-cyanopropanoyl)-4,4-difluoro-pyrrolidin-2-yl]methyl]-N-methyl-5-(7H-pyrrolo[2,3-d]pyrimidin-4-yl)-5,8-diazaspiro[2.5]octane-8-sulfonamide], the EC50 in test [1], in test [2], in test [3] and in test [4] was less than 0.1 µM in each case.
For the compound `CN(C[C@@H]1CC(F)(F)CN1C=O)S(=O)(=O)N1CCN(c2ncnc3[nH]ccc23)CC12CC2` [Example 157, N-[[(2S)-4,4-difluoro-1-formyl-pyrrolidin-2-yl]methyl]-N-methyl-5-(7H-pyrrolo[2,3-d]pyrimidin-4-yl)-5,8-diazaspiro[2.5]octane-8-sulfonamide], the half-maximal effective concentration (EC50) in test [1], in test [2], in test [3] and in test [4] was less than 0.1 µM throughout.
With `CN(CC1CCN(S(C)(=O)=O)CC1)S(=O)(=O)N1CCN(c2ncnc3[nH]ccc23)CC12CC2` [Example 158, N-methyl-N-[(1-methylsulfonyl-4-piperidyl)methyl]-5-(7H-pyrrolo[2,3-d]pyrimidin-4-yl)-5,8-diazaspiro[2.5]octane-8-sulfonamide], the EC50 in test [1] is less than 0.1 µM; in test [2], less than 0.1 µM; in test [3], 0.1 to 0.5 µM; in test [4] it was less than 0.1 µM.
As for `CN(CC1CCN(S(=O)(=O)CCCC#N)CC1)S(=O)(=O)N1CCN(c2ncnc3[nH]ccc23)CC12CC2` [Example 159, N-[[1-(3-cyanopropylsulfonyl)-4-piperidyl]methyl]-N-methyl-5-(7H-pyrrolo[2,3-d]pyrimidin-4-yl)-5,8-diazaspiro[2.5]octane-8-sulfonamide], the EC50 is less than 0.1 µM in test [1], less than 0.1 µM in test [2], 0.1 to 0.5 µM in test [3] and less than 0.1 µM in test [4].
Take `CN(CC1CCCN(S(C)(=O)=O)C1)S(=O)(=O)N1CCN(c2ncnc3[nH]ccc23)CC12CC2` (stereo not shown) [Example 160, N-methyl-N-[(1-methylsulfonyl-3-piperidyl)methyl]-5-(7H-pyrrolo[2,3-d]pyrimidin-4-yl)-5,8-diazaspiro[2.5]octane-8-sulfonamide]: the EC50 in test [1] is less than 0.1 µM; in test [2], less than 0.1 µM; in test [3], 0.1 to 0.5 µM; in test [4], less than 0.1 µM.
Regarding `CN(CC1CCCN(S(=O)(=O)CCCC#N)C1)S(=O)(=O)N1CCN(c2ncnc3[nH]ccc23)CC12CC2` (stereo not shown) [Example 161, N-[[1-(3-cyanopropylsulfonyl)-3-piperidyl]methyl]-N-methyl-5-(7H-pyrrolo[2,3-d]pyrimidin-4-yl)-5,8-diazaspiro[2.5]octane-8-sulfonamide], the EC50 is less than 0.1 µM in test [1], 0.1 to 0.5 µM in test [2], greater than 0.5 µM in test [3] and less than 0.1 µM in test [4].
